Test in all cases: inhibition of tumour cell growth, NCI panel, 48 h
For test [1], the system named is COLO 205 colon.
The test system of test [2] is SW-620 colon.
In test [3] the test system is OVCAR-4 ovarian.
Test [4] relates to A549 NSCLC.
In test [5] the test system is SN12C renal.
The subject of test [6] is K-562 leukemia.
Test [7] deals with OVCAR-5 ovarian.
Test [8] has as its system SF-268 CNS.
Test [9] has as its system MALME-3M melanoma.
Test [10] has as its system MCF7 breast.

Among the data in PubChem BioAssay (NCI) are TGI and GI50 values, retold here.

Where “and” joins values, the source holds several entries; their conditions need not be identical. Equal values may be shown once.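 The compound was tested at five concentrations on cells cultured in 96-well plates, with a 48-hour exposure period. The concentration for 50% growth inhibition is given as GI50. TGI denotes the concentration required for complete inhibition of growth.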

Regarding `O=S(=O)(O)c1cc(O)c(N=NC2S(=O)(=O)OCCOS2(=O)=O)c2ccccc12`, the TGI in test [1], in test [2], in test [3], in test [4], in test [5] and in test [6] was over 100 µM throughout. The TGI in test [7], in [8], in test [9] and in [10] was over 100 µM in each case.
`CCOC(=O)Cn1nnc2ccc(Nc3nc4ccccc4nc3C(=O)OCC)cc21`: the TGI in test [1], in test [2], in [3], in [4], in test [5] and in [6] was over 100 µM in each case. The TGI in test [7], in test [8], in test [9] and in test [10] was over 100 µM throughout.
Take `COc1ccc(OC)c([N+](=O)[O-])c1-c1nc2sc(Cl)cn2c1/C=N/N=C(N)N`: the TGI was over 100 µM in [1]; 55 µM in test [2]; 30.1 µM in [3]; 58.3 µM in [4]; 37.5 µM in test [5]; 56.3 µM in test [6]. The TGI in test [7] worked out at 71.7 µM; in [8], 64.8 µM; in test [9], 42.4 µM; in test [10], 46.3 µM.
`CC(C)(C)OC(=O)C1C(=O)NC(=O)CC1C(OCc1ccccc1)C(OCc1ccccc1)C(COCc1ccccc1)OCc1ccccc1` (centres undefined): the TGI in test [1], in [2], in test [3], in [4], in test [5] and in test [6] was over 100 µM in each case. In addition, the TGI in test [7] is over 100 µM; in test [8], over 100 µM; in [9] it was > 100 µM and 73 µM; in test [10], over 100 µM. The GI50 in test [4] was > 100 µM and 26.9 µM; in test [9] it was > 100 µM and 15.7 µM; in test [10], 50 µM and 15.3 µM.
`O=C1C(NS(=O)(=O)c2ccccc2)=C(n2ccnc2)C(=O)c2ccccc21`: the TGI in test [1], in [2], in test [3], in [4], in test [5] and in [6] was over 100 µM throughout. Also, the TGI in [7], in test [8], in test [9] and in [10] was over 100 µM each time.
`COc1nc2ncc([C@@H](OC(C)=O)[C@@H](COC(C)=O)OC(C)=O)nc2c(=O)n1C`: the TGI in test [1], in test [2], in [3], in [4], in [5] and in [6] was over 100 µM throughout. The TGI in [7], in test [8], in test [9] and in [10] was over 100 µM throughout.
In the case of `COc1ccccc1C1C(C#N)=C(N)SC(N)=C1C#N`, the GI50 is over 100 µM in test [1]; over 100 µM in [2]; 81.1 µM in test [3]; over 100 µM in test [4]; 15.5 µM in [5]; 41.8 µM in [6]. Also, the GI50 in test [7] was over 100 µM; in test [8], 48.9 µM; in test [9], 81.3 µM; in test [10] it was 30.6 µM. The TGI in [1] was over 100 µM; in test [2] it was over 100 µM; in [3], over 100 µM; in test [4], over 100 µM; in test [5], 42 µM; in [6], over 100 µM. In addition, the TGI in test [7], in test [8], in [9] and in test [10] was over 100 µM throughout.
Turning to `COC(=O)C12CCCN1CCC2`, the TGI in test [1], in test [2], in [3], in test [4], in test [5] and in test [6] was over 100 µM each time. For the same compound, the TGI in [7], in [8], in test [9] and in test [10] was over 100 µM throughout.
Take `COc1cc2ncnc(Nc3cccc(Br)c3)c2cc1OC`: the TGI in test [1] is 20.8 µM; in test [2] it was over 50.2 µM; in [3], over 49.8 µM; in [4], over 69.1 µM; in test [5], over 52.4 µM; in test [6], over 55.5 µM. The TGI is 25 µM in [7], over 89.6 µM in [8], 32.2 µM in test [9] and over 52 µM in test [10].
`CN(C(=O)Cc1cc(Cl)c(Cl)cc1NC(=O)CCCN)[C@H]1CCCC[C@@H]1N1CCCC1`: the TGI in [1] is 35 µM; in [2], 91.2 µM; in [3] it was over 100 µM; in test [4], 83.1 µM; in [5], over 100 µM; in test [6], over 100 µM. The TGI is over 100 µM in [7], 30.6 µM in test [8], 31.1 µM in [9] and 44.2 µM in [10].
On to `CC(Nc1cccc(Cl)c1)c1ccncc1` (centres undefined), for which the TGI in test [1], in test [2], in [3], in test [4], in test [5] and in test [6] was over 100 µM throughout. In addition, the TGI in [7], in test [8], in test [9] and in test [10] was over 100 µM throughout.
Take `O=[N+]([O-])C(/C(Cl)=C(/Cl)N1CCOCC1)=C1\Nc2ccccc2O1`: the TGI in test [1], in test [2], in test [3], in test [4], in test [5] and in test [6] was over 100 µM each time. The TGI in test [7], in [8], in test [9] and in test [10] was over 100 µM throughout.
For the compound `CN(C)CC1CCC/C(=C\c2ccc(Cl)c(Cl)c2)C1=O` (centres undefined), the TGI in test [1] is 7.27 µM; in test [2] it was over 29.3 µM; in [3], 14.3 µM; in test [4] it was 30.4 µM; in test [5], 8.79 µM; in [6] it was 5.47 µM. For the same compound, the TGI in [7] turned out to be 37.4 µM; in test [8], 8.88 µM; in [9], 20.3 µM; in test [10], 5.44 µM.
With `O=C1O/C(=C(\Br)c2ccc([N+](=O)[O-])cc2)c2ccccc21`, the TGI in test [1], in [2], in test [3], in [4], in test [5] and in [6] was over 100 µM throughout. For the same compound, the TGI in [7], in [8], in test [9] and in test [10] was over 100 µM each time.
As for `Cc1cc(C)c2c(-c3ccccc3)cc(=O)[nH]c2c1`, the TGI in [1], in [2], in [3], in [4], in [5] and in test [6] was over 100 µM each time. Further, the TGI in [7], in test [8], in test [9] and in [10] was over 100 µM in each case.
For the compound `CN(C)c1ccc(-c2c(C#N)c(-c3ccccc3)n(NS(=O)(=O)c3ccccc3)c(=O)c2C#N)cc1`, the TGI in test [1], in [2], in test [3], in test [4], in [5] and in test [6] was over 100 µM throughout. The TGI in [7], in test [8], in [9] and in test [10] was over 100 µM in each case.
As for `CCCCCCc1cc2cc(C(=O)Nc3nc(C45CC6CC(CC(C6)C4)C5)cs3)c(=O)oc2cc1O`, the TGI in [1] is 32.6 µM; in test [2], over 100 µM; in test [3] it was 42.1 µM; in [4], 54.4 µM; in test [5], 28.7 µM; in test [6], 11 µM. Besides, the TGI was 71.3 µM in test [7], 63 µM in test [8], 51.1 µM in [9] and over 100 µM in [10].
Consider `COC(=O)C12C(=O)CC3CCC1C32C(=O)OC` (centres undefined), for which the TGI in test [1], in test [2], in test [3], in test [4], in [5] and in test [6] was over 100 µM each time. For the same compound, the TGI in [7], in test [8], in test [9] and in test [10] was over 100 µM each time.
On to `COc1cc(OC)c(-n2[nH]c(=O)n(C)c2=O)c(OC)c1`, for which the TGI in test [1], in test [2], in test [3], in test [4], in test [5] and in test [6] was over 100 µM in each case. Moreover, the TGI in test [7], in [8], in test [9] and in test [10] was over 100 µM throughout.
For the compound `O=c1[nH]nc(-c2ccc3ccccc3c2)[nH]1`, the TGI in test [1], in [2], in test [3], in test [4], in [5] and in [6] was over 100 µM in each case. Moreover, the TGI in test [7], in test [8], in [9] and in [10] was over 100 µM throughout.
Consider `CCOP(=O)(OCC)/C(C#N)=C/c1nc[nH]c1C`, for which the TGI in [1], in [2], in [3], in test [4], in test [5] and in test [6] was over 100 µM each time. Moreover, the TGI in [7], in test [8], in [9] and in test [10] was over 100 µM each time.
With `Cc1c2ccccc2c(/C=N/NC(=O)CSCC(=O)N/N=C/c2c3ccccc3c(C)c3ccccc23)c2ccccc12`, the GI50 in test [1] was over 100 µM. The TGI in test [1], in test [2], in test [3], in test [4], in test [5] and in [6] was over 100 µM throughout. Besides, the TGI in test [7] was over 100 µM; in test [8] it was over 75.3 µM; in test [9], 97.3 µM; in test [10], over 78.7 µM.
For `O=C(Nc1ccc(Cl)cc1)c1cc(S(=O)(=O)Nc2nc3ncccc3[nH]2)c(SSc2cc(Cl)c(C(=O)Nc3ccc(Cl)cc3)cc2S(=O)(=O)Nc2nc3ncccc3[nH]2)cc1Cl`, the TGI in test [1], in test [2], in test [3], in test [4], in test [5] and in test [6] was over 100 µM each time. The TGI in test [7], in [8], in test [9] and in test [10] was over 100 µM throughout.
Regarding `COc1cc(O)c2c(=O)c3cccc(C)c3[nH]c2c1`, the TGI in test [1], in test [2], in test [3], in test [4], in test [5] and in test [6] was over 10 µM each time. For the same compound, the TGI in test [7], in [8], in test [9] and in test [10] was over 10 µM each time.
As to `Cc1ccc2[nH]c3c(c2c1)C1CCC(C(C)(C)C)CC1C1C(=O)N(c2ccc(Oc4ccccc4)cc2)C(=O)C31` (centres undefined), the TGI was over 100 µM in test [1]; over 100 µM in test [2]; 42.6 µM in test [3]; over 100 µM in test [4]; 37 µM in [5]; 31.3 µM in [6]. Moreover, the TGI in [7] is over 81 µM; in test [8], 41.6 µM; in test [9], 41.9 µM; in [10], over 100 µM.
